We go through 23 compounds from patent US20160130278A1 (TAISHO PHARMACEUTICAL CO., LTD, priority 2013, published 2016).

Each structure is given as a SMILES string.

The target of the experiment is T1, human type 1 glycine transporter (GlyT1) (Homo sapiens, UniProt P48067).
T1 construct: T98G cells (glioma cells) expressing human type 1 glycine transporter (GlyT1) were used
T1 sequence (P48067 1-706): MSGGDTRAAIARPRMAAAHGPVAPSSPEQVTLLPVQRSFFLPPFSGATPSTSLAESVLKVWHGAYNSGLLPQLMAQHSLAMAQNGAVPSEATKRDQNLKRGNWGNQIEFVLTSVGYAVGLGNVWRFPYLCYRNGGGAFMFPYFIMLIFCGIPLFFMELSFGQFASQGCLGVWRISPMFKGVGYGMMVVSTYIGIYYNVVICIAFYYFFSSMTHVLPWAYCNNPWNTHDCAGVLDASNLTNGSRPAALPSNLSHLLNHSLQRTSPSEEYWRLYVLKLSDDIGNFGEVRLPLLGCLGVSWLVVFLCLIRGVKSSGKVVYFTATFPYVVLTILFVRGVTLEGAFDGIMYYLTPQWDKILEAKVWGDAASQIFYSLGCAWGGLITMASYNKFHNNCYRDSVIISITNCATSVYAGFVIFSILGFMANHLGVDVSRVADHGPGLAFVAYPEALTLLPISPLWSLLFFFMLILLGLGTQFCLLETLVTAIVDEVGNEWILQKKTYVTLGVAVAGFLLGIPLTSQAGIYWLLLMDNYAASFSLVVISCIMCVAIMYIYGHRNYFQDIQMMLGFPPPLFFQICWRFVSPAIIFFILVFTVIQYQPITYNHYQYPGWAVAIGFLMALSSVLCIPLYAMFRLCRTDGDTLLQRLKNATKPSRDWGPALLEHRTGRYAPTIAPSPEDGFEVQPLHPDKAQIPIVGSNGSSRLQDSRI
Nature of the experiment: Glycine uptake inhibition experiment ([3H]glycine uptake). The settings on record: GlyT1. It counts as cell-based. On the procedure:
Glycine Uptake Inhibition Experiment
A glycine uptake experiment was conducted in accordance with the method published in Neuron, 8, 927-935, 1992. In the experiment, T98G cells (glioma cells) expressing human type 1 glycine transporter (GlyT1) were used. The T98G cells were seeded in a 96-well plate at 2.0×10^4 cells/well and cultured overnight in a CO2 incubator. The test substance was dissolved in a 100% DMSO solution and then dissolved in a 10 mM HEPES buffer solution (pH 7.4) containing 150 mM sodium chloride, 1 mM calcium chloride, 5 mM potassium chloride, 1 mM magnesium chloride, 10 mM glucose and 0.2% bovine serum albumin. After removing the cell culture medium, the test substance was subjected to a 10-min pretreatment. Subsequently, the test substance and [^3H] glycine (final concentration: 250 nM) were added to the cells and reaction was performed at room temperature for 15 minutes. After the end of the reaction, the extracellular fluid was aspirated with a manifold to remove excess labeled glycine present outside the cells, and then the cells were lysed with a 0.5 M aqueous sodium hydroxide solution. The glycine content in the cells was determined by measuring the radioactivity in the cell lysate with a liquid scintillation counter. Glycine uptake in the presence of 10 μM ALX5407 was defined as non-specific uptake, and the value calculated by subtracting the amount of the non-specific uptake from the total uptake in the absence of 10 μM ALX5407 was defined as specific uptake. In addition, glycine uptake inhibitory activity (IC50 value) was calculated from an inhibition curve at the concentrations of each test substance ranging from 10^−9 to 10^−5 M. It should be noted that ALX5407 is an HCl salt of N-[(3R)-3-([1,1′-biphenyl]-4-yloxy)-3-(4-fluorophenyl)propyl]-N-methylglycine.

As usually defined, the IC50 is the midpoint of a concentration-inhibition curve. A higher IC50 goes with a need for much substance. Consider `O=C(NC(c1cccc(Cl)n1)[C@]1(O)CC[C@@H](F)CC1)c1ccc(C(F)(F)F)nc1Cl` (single isomer, unassigned) [Compound 339, 2-chloro-N-[(6-chloropyridin-2-yl)(cis-4-fluoro-1-hydroxycyclohexyl)methyl]-6-(trifluoromethyl)pyridine-3-carboxamide], for which half-maximal inhibition (IC50) was put at 140 nM.

In the case of `N#Cc1ccc(-c2cccc(C(NC(=O)c3cccc(C(F)(F)F)c3Cl)C3(O)CCCC3)c2)cc1` (centres unmarked) [Compound 5, 2-chloro-N-[(4′-cyanobiphenyl-3-yl)(1-hydroxycyclopentyl)methyl]-3-(trifluoromethyl)benzamide], half-maximal inhibition (IC50) was put at 880 nM. As for `CCn1cc(-c2cccc(C(NC(=O)c3cc(Cl)ccc3C(F)(F)F)C3(O)CCC(F)(F)CC3)c2)cn1` (single isomer, unassigned) [Compound 218, 5-chloro-N-[(4,4-difluoro-1-hydroxycyclohexyl)[3-(1-ethyl-1H-pyrazol-4-yl)phenyl]methyl}-2-(trifluoromethyl)benzamide], the IC50 was 5900 nM. With `O=C(NC(c1cccc(-c2cnn(CC(F)(F)F)c2)c1)C1(O)CCC(F)(F)CC1)c1nccc(C(F)(F)F)c1Cl` (single isomer, unassigned) [Compound 135, 3-chloro-N-[(4,4-difluoro-1-hydroxycyclohexyl){3-[1-(2,2,2-trifluoroethyl)-1H-pyrazol-4-yl]phenyl}methyl]-4-(trifluoromethyl)pyridine-2-carboxamide], the IC50 stood at 72 nM.

For the compound `O=C(NC(c1cccc(F)c1Cl)[C@]1(O)CC[C@@H](F)CC1)c1cc(F)ccc1Cl` (single isomer, unassigned) [Compound 295, 2-chloro-N-[(2-chloro-3-fluorophenyl)(cis-4-fluoro-1-hydroxycyclohexyl)methyl]-5-fluorobenzamide], the IC50 was determined as 2100 nM. `O=C(NC(c1cccc(Cl)n1)[C@]1(O)CC[C@@H](F)CC1)c1nccc(C(F)(F)F)c1Cl` (single isomer, unassigned) [Compound 274, 3-chloro-N-[(6-chloropyridin-2-yl)(cis-4-fluoro-1-hydroxycyclohexyl)methyl]-4-(trifluoromethyl)pyridine-2-carboxamide] returned an IC50 of 77 nM. In turn, `O=C(N[C@H](c1cccc(Br)c1)C1(O)CCCC1)c1nccc(C(F)(F)F)c1Cl` [Compound 34, N-[(R)-(3-bromophenyl)(1-hydroxycyclopentyl)methyl]-3-chloro-4-(trifluoromethyl)pyridine-2-carboxamide] came in with an IC50 of 1000 nM. The figure for `CCn1cc(-c2cccc(C(NC(=O)c3ncccc3Cl)C3(O)CCCC3)c2)cn1` (centres unmarked) [Compound 21, 3-chloro-N-{[3-(1-ethyl-1H-pyrazol-4-yl)phenyl](1-hydroxycyclopentyl)methyl}pyridine-2-carboxamide] is 4600 nM; for `O=C(NC(c1ccccc1Cl)[C@]1(O)CC[C@H](F)CC1)c1nccc(C(F)(F)F)c1Cl` (single isomer, unassigned) [Compound 198, 3-chloro-N-[(2-chlorophenyl)(trans-4-fluoro-1-hydroxycyclohexyl)methyl]-4-(trifluoromethyl)pyridine-2-carboxamide] it is 200 nM; for `O=C(NC(c1cccc(F)c1Cl)[C@]1(O)CC[C@@H](F)CC1)c1ccc(C(F)(F)F)cc1Cl` (single isomer, unassigned) [Compound 298, 2-chloro-N-[(2-chloro-3-fluorophenyl)(cis-4-fluoro-1-hydroxycyclohexyl)methyl]-4-(trifluoromethyl)benzamide] it is 410 nM. Take `CCn1cc(-c2cccc(C(NC(=O)c3cccc4ccccc34)C3(O)CCC(F)(F)CC3)c2)cn1` (single isomer, unassigned) [Compound 196, N-{(4,4-difluoro-1-hydroxycyclohexyl)[3-(1-ethyl-1H-pyrazol-4-yl)phenyl]methyl}naphthalene-1-carboxamide]: the midpoint of inhibition, the IC50, lay at 290 nM. For `O=C(NC(c1cccc(F)c1Cl)[C@]1(O)CC[C@@H](F)CC1)c1cc(Cl)cc(Cl)c1` (single isomer, unassigned) [Compound 253, 3,5-dichloro-N-[(2-chloro-3-fluorophenyl)(cis-4-fluoro-1-hydroxycyclohexyl)methyl]benzamide], the midpoint of inhibition, the IC50, lay at 8300 nM. Turning to `CCn1cc(-c2cccc(C(NC(=O)c3cc(Cl)ccc3Cl)C3(O)CCC(F)(F)CC3)c2)cn1` (single isomer, unassigned) [Compound 194, 2,5-dichloro-N-{(4,4-difluoro-1-hydroxycyclohexyl)[3-(1-ethyl-1H-pyrazol-4-yl)phenyl]methyl}benzamide], half-maximal inhibition (IC50) was put at 760 nM.

In turn, `O=C(NC(c1cc(Cl)ccn1)[C@]1(O)CC[C@@H](F)CC1)c1nccc(C(F)(F)F)c1Cl` (single isomer, unassigned) [Compound 286, 3-chloro-N-[(4-chloropyridin-2-yl)(cis-4-fluoro-1-hydroxycyclohexyl)methyl]-4-(trifluoromethyl)pyridine-2-carboxamide] came in with an IC50 of 140 nM. In turn, `O=C(NC(c1cc(Cl)ccn1)[C@]1(O)CC[C@@H](F)CC1)c1ccnc(C(F)(F)F)c1Cl` (single isomer, unassigned) [Compound 330, 3-chloro-N-[(4-chloropyridin-2-yl)(cis-4-fluoro-1-hydroxycyclohexyl)methyl]-2-(trifluoromethyl)pyridine-4-carboxamide] registered an IC50 of 56 nM. To `O=C(NC(c1cccc(-c2cn[nH]c2)c1)C1(O)CCCC1)c1nccc(C(F)(F)F)c1Cl` (centres unmarked) [Compound 17, 3-chloro-N-{(1-hydroxycyclopentyl)[3-(1H-pyrazol-4-yl)phenyl]methyl}-4-(trifluoromethyl)pyridine-2-carboxamide] belongs 14 nM. Compound `O=C(NC(c1cccc(F)c1Cl)[C@]1(O)CC[C@@H](F)CC1)c1nc(C(F)(F)F)ccc1Cl` (single isomer, unassigned) [Compound 290, 3-chloro-N-[(2-chloro-3-fluorophenyl)(cis-4-fluoro-1-hydroxycyclohexyl)methyl]-6-(trifluoromethyl)pyridine-2-carboxamide] showed an IC50 of 900 nM.

`N#Cc1cccc(C(NC(=O)c2nccc(C(F)(F)F)c2Cl)C2(O)CCCC2)c1` (centres unmarked) [Compound 23, 3-chloro-N-[(3-cyanophenyl)(1-hydroxycyclopentyl)methyl]-4-(trifluoromethyl)pyridine-2-carboxamide]: the IC50 was 300 nM. In the case of `O=C(NC(c1ccc(F)c(F)c1F)C1(O)CCC(F)(F)CC1)c1ccnc(C(F)(F)F)c1Cl` (centres unmarked) [Compound 171, 3-chloro-N-[(4,4-difluoro-1-hydroxycyclohexyl)(2,3,4-trifluorophenyl)methyl]-2-(trifluoromethyl)pyridine-4-carboxamide], the IC50 was determined as 1100 nM. Consider `O=C(NC(c1ccc(F)cc1Cl)C1(O)CCCC1)c1nccc(C(F)(F)F)c1Cl` (single isomer, unassigned) [Compound 100, 3-chloro-N-[(2-chloro-4-fluorophenyl)(1-hydroxycyclopentyl)methyl]-4-(trifluoromethyl)pyridine-2-carboxamide], for which it took 59 nM to reach half-maximal inhibition (IC50). With `CCn1cc(-c2cccc(C(NC(=O)c3cccc(Cl)c3Cl)C3(O)CCC(F)(F)CC3)c2)cn1` (single isomer, unassigned) [Compound 145, 2,3-dichloro-N-{(4,4-difluoro-1-hydroxycyclohexyl)[3-(1-ethyl-1H-pyrazol-4-yl)phenyl]methyl}benzamide], the midpoint of inhibition, the IC50, lay at 670 nM. The figure for `O=C(NC(c1ccc(F)cc1)C1(O)CCCC1)c1nccc(C(F)(F)F)c1Cl` (single isomer, unassigned) [Compound 58, 3-chloro-N-[(4-fluorophenyl)(1-hydroxycyclopentyl)methyl]-4-(trifluoromethyl)pyridine-2-carboxamide] is 760 nM; for `O=C(NC(c1cccc(Cl)c1)C1(O)CCC(F)(F)CC1)c1ccnc(C(F)(F)F)c1Cl` (single isomer, unassigned) [Compound 167, 3-chloro-N-[(3-chlorophenyl)(4,4-difluoro-1-hydroxycyclohexyl)methyl]-2-(trifluoromethyl)pyridine-4-carboxamide] it is 210 nM.
